Assay type in all cases: cell-based
Experiment [1] has as its target T1, CB2 [CNR2] (Homo sapiens, UniProt P34972). In words: PathHunter GPCR Biosensor cAMP assay, CNR2 agonist mode. To be noted: Gi cAMP, 25 μM Forskolin. The procedure:
(§1) Compounds 2 and 3 were evaluated for activity against CB1 [CNR1] and CB2 [CNR2], both as agonists or as antagonists using the PathHunter GPCR Biosensor (Eurofins Discovery X, Fremont CA). For agonist assays, data was normalized to the maximal and minimal response observed in the presence of control ligand and vehicle. For antagonist assays, data was normalized to the maximal and minimal response observed in the presence of EC80 ligand and vehicle. The following EC80 concentrations were used: CNR1 cAMP: 0.0012 μM CP55940; CNR2 cAMP: 0.0048 μM CP55940. For Gi cAMP assays, the following forskolin concentration was used: CNR1 cAMP: 20 μM Forskolin; CNR2 cAMP: 25 μM Forskolin.
For orientation: cAMP levels reflect the balance of adenylyl cyclase and phosphodiesterase activity.

The target in experiment [2] is T2, CB1 [CNR1] (Homo sapiens, UniProt P21554). In words: PathHunter GPCR Biosensor cAMP assay, CNR1 agonist mode. To be noted: Gi cAMP, 20 μM Forskolin. The procedure:
as §1

The target of experiment [3] is T1, CB2 [CNR2]. Nature of the experiment: PathHunter GPCR Biosensor cAMP assay, CNR2 antagonist mode. To be noted: Gi cAMP, 25 μM Forskolin; EC80 0.0048 μM CP55940. The procedure: as §1
In experiment [4] the target is T2, CB1 [CNR1]. Nature of the experiment: PathHunter GPCR Biosensor cAMP assay, CNR1 antagonist mode. To be noted: for IC50: Gi cAMP, 20 μM Forskolin, EC80 0.0012 μM CP55940; for CB1 vs CB2 selectivity and mode of action (in words): conclusion from Table 7. The procedure: as §1

T2 sequence (P21554 whole entry): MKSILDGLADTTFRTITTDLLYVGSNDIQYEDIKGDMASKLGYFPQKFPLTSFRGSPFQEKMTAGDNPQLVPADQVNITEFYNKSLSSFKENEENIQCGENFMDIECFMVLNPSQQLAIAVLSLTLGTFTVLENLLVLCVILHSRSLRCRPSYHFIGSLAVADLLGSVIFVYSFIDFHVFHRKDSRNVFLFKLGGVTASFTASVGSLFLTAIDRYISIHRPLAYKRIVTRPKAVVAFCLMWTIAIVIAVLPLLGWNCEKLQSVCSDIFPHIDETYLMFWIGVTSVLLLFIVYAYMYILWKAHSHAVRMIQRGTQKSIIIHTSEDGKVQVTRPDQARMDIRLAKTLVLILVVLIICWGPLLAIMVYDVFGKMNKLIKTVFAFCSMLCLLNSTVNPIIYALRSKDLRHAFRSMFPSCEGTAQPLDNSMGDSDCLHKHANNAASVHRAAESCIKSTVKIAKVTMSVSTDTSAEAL
T1 sequence (P34972 whole entry): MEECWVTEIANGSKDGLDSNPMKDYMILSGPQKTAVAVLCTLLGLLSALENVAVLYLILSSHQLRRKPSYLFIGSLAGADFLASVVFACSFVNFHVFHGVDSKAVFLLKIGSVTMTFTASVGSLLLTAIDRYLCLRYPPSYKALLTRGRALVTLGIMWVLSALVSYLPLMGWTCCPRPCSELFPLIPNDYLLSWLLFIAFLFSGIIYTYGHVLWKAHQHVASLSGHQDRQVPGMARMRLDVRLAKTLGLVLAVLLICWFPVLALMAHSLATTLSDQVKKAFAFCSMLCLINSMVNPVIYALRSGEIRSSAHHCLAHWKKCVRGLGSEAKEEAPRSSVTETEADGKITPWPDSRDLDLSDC

As to `CC(C)(CO)NC(=O)N1CC(OC(c2ccc(Cl)cc2)c2ccccc2C(F)(F)F)C1` (stereo not shown) [Compound 2, 3-((4-chlorophenyl)(2-(trifluoromethyl)phenyl)methoxy)-N-(1-hydroxy-2-methylpropan-2-yl)azetidine-1-carboxamide], the EC50 at CB2 [CNR2] [1] and at CB1 [CNR1] [2] was greater than 1 µM in each case. For the same compound, the IC50 is greater than 1 µM on CB2 [CNR2] [3] and 0.0456 µM at CB1 [CNR1] [4]. The “CB1 vs CB2 selectivity and mode of action (in words)” value at CB1 [CNR1] [4] is on record as “selective CB1 antagonists”.
Regarding `CC(C)(NC(=O)N1CC(OC(c2ccc(Cl)cc2)c2ccccc2C(F)(F)F)C1)C(=O)O` (stereo not shown) [Compound 3, 2-(3-((4-chlorophenyl)(2-(trifluoromethyl)phenyl)methoxy)azetidine-1-carboxamido)-2-methylpropanoic acid], the EC50 on CB2 [CNR2] [1] and at CB1 [CNR1] [2] was greater than 1 µM throughout. For the same compound, the IC50 is greater than 1 µM on CB2 [CNR2] [3] and 0.383 µM on CB1 [CNR1] [4]. Moreover, at CB1 [CNR1] [4], the “CB1 vs CB2 selectivity and mode of action (in words)” value was “selective CB1 antagonists”.

As a reminder, the EC50 is the concentration needed to bring the measured effect to its halfway point. Read a low EC50 as higher potency in that assay. By IC50 is commonly meant the midpoint of a concentration-inhibition curve. Read a high IC50 as weaker potency.

The values are drawn from US20260091020A1, “TREATMENT OF ACUTE CANNABINOID OVERDOSE” (Anebulo Pharmaceuticals, Inc., priority 2022, published 2026).
